The structures appear in SMILES notation. Toxic doses and inconclusive results are not listed.

Consider 19 compounds from PubChem BioAssay AID328 (DTP/NCI, 2004).

The subject of the assay is BDF1 mice, P388 leukemia ip, median survival T/C. Description: NCI In Vivo Anticancer Drug Screen. Data for tumor model P388 Leukemia (intraperitoneal) in B6D2F1 (BDF1) mice. Particulars: endpoint: median survival time, higher = longer survival. The method in brief:
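Compound-treated tumour-bearing mice were compared with vehicle-treated controls. Survival was recorded, and the value is the treated-group measurement divided by the control-group measurement (T/C).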

[1] abbreviates: dose: 50.0 mg/kg/injection, schedule: Q01DX001 (ip), vehicle: saline with Tween-80.
The mark [2] stands for this setting: dose: 100.0 mg/kg/injection, schedule: Q01DX001 (ip), vehicle: saline with Tween-80.
Setting [3] is: dose: 200.0 mg/kg/injection, schedule: Q01DX001 (ip), vehicle: saline with Tween-80.
Where [4] appears, read: dose: 25.0 mg/kg/injection, schedule: Q01DX009 (ip), vehicle: saline.
Setting [5] is: dose: 50.0 mg/kg/injection, schedule: Q01DX009 (ip), vehicle: saline.
[6] abbreviates: dose: 100.0 mg/kg/injection, schedule: Q01DX009 (ip), vehicle: saline.
Where [7] appears, read: dose: 200.0 mg/kg/injection, schedule: Q01DX009 (ip), vehicle: saline.
Setting [8] is: dose: 1.0 mg/kg/injection, schedule: Q01DX009 (ip), vehicle: Klucel (hydroxypropylcellulose) (HPC).
[9] abbreviates: dose: 2.0 mg/kg/injection, schedule: Q01DX009 (ip), vehicle: Klucel (hydroxypropylcellulose) (HPC).
Where [10] appears, read: dose: 4.0 mg/kg/injection, schedule: Q01DX009 (ip), vehicle: Klucel (hydroxypropylcellulose) (HPC).
Where [11] appears, read: dose: 50.0 mg/kg/injection, schedule: Q01DX009 (ip), vehicle: saline with Tween-80.
Where [12] appears, read: dose: 200.0 mg/kg/injection, schedule: Q04DX003 (ip), vehicle: saline with Tween-80.

Consider `O=S(=O)(/N=C1C=C/C(=N\S(=O)(=O)c2ccccc2)C(Sc2ccccc2)=C\1)c1ccccc1`, for which the T/C under setting [1] was 104 % of control, the T/C under setting [2] is 90 % of control and the T/C under setting [3] is 122 % of control.

As for `COc1cccc2c1C(=O)c1c(O)c3c(c(O)c1C2=O)CC(O)(/C(C)=N/NC(=O)CCC(=O)N/N=C(\C)C1(O)Cc2c(O)c4c(c(O)c2C(OC2CC(N)C(O)C(C)O2)C1)C(=O)c1c(OC)cccc1C4=O)CC3OC1CC(N)C(O)C(C)O1` (centres undefined), the T/C is, setting by setting: (dose: 14.4 mg/kg/injection, schedule: Q04DX003 (ip), vehicle: water) 158 % of control; (dose: 40.0 mg/kg/injection, schedule: Q04DX003 (ip), vehicle: water) 109 % of control.

In the case of `CCCCCCCCCCCCCCCC[N+]1(CC)CCCC1`, the T/C is 120 % of control (dose: 0.19 mg/kg/injection, schedule: Q01DX009 (ip), vehicle: saline) and 104 % of control (dose: 0.39 mg/kg/injection, schedule: Q01DX009 (ip), vehicle: saline).

As to `CC(=O)C1CC2C=CCC(C2)C1` (centres undefined), the T/C was 95 % of control under setting [1], 120 % of control under setting [2] and 95 % of control under setting [3].

As for `C=CCOCC1CO1` (centres undefined), the T/C runs as follows: (dose: 12.5 mg/kg/injection, schedule: Q01DX009 (ip), vehicle: saline) 99 % of control; under setting [4], 106 % of control; under setting [5], 100 % of control; under setting [6], 109 % of control; under setting [7], 117 % of control.

With `CC1CC2OC(=O)C3=C2C(CCC3)C12CC(c1ccoc1)OC2=O` (centres undefined), the T/C was 111 % of control (dose: 25.0 mg/kg/injection, schedule: Q01DX001 (ip), vehicle: saline with Tween-80); 106 % of control under setting [1]; 106 % of control under setting [2]; 116 % of control under setting [3].

Turning to `CC(=O)[O][Hg][c]1s[c]([Hg][O]C(C)=O)[c]([Hg][O]C(C)=O)[c]1[Hg][O]C(C)=O`, the T/C reads like this: under setting [8], 101 % of control; under setting [9], 100 % of control; (dose: 2.6 mg/kg/injection, schedule: Q01DX009 (ip), vehicle: saline) 118 % of control; (dose: 3.8 mg/kg/injection, schedule: Q04DX003 (ip), vehicle: saline) 95 % of control; under setting [10], 102 % of control; (dose: 4.0 mg/kg/injection, schedule: Q01DX009 (ip), vehicle: saline) 118 % of control. The T/C (dose: 6.0 mg/kg/injection, schedule: Q01DX009 (ip), vehicle: Klucel (hydroxypropylcellulose) (HPC)) was 101 % of control; the T/C (dose: 6.0 mg/kg/injection, schedule: Q01DX009 (ip), vehicle: saline) was 118 % of control; the T/C (dose: 7.5 mg/kg/injection, schedule: Q04DX003 (ip), vehicle: saline) was 100 % of control; the T/C (dose: 9.0 mg/kg/injection, schedule: Q01DX009 (ip), vehicle: Klucel (hydroxypropylcellulose) (HPC)) was 103 % of control; the T/C (dose: 9.0 mg/kg/injection, schedule: Q01DX009 (ip), vehicle: saline) is 118 % of control.

In the case of `O=NN(CCCl)C(=O)N[C@H]1CCCC[C@@H]1Cl`, the T/C (dose: 33.0 mg/kg/injection, schedule: Q04DX003 (ip), vehicle: saline with Tween-80) is 272 % of control; the T/C (dose: 50.0 mg/kg/injection, schedule: Q04DX003 (ip), vehicle: saline with Tween-80) is 272 % of control; the T/C (dose: 75.0 mg/kg/injection, schedule: Q04DX003 (ip), vehicle: saline with Tween-80) was 213 % of control.

In the case of `CCOC(=O)CCc1nn(C)c2ccc(CC)cc2c1=O`, the T/C under setting [11] is 101 % of control; the T/C (dose: 100.0 mg/kg/injection, schedule: Q01DX009 (ip), vehicle: saline with Tween-80) is 92 % of control; the T/C (dose: 200.0 mg/kg/injection, schedule: Q01DX009 (ip), vehicle: saline with Tween-80) is 90 % of control.

Take `CCOC(=O)CCC(NC(=O)N(CCCl)CCCl)C(=O)OCC` (centres undefined): the T/C reads like this: (dose: 132.0 mg/kg/injection, schedule: Q04DX003 (ip), vehicle: saline with Tween-80) 175 % of control; under setting [12], 204 % of control; (dose: 300.0 mg/kg/injection, schedule: Q04DX003 (ip), vehicle: saline with Tween-80) 183 % of control.

For `CN(C(=O)c1ccccc1)N(C)C(=O)c1ccccc1`, the T/C by setting is: (dose: 12.5 mg/kg/injection, schedule: Q04DX003 (ip), vehicle: Klucel (hydroxypropylcellulose) (HPC)) 90 % of control; (dose: 25.0 mg/kg/injection, schedule: Q04DX003 (ip), vehicle: Klucel (hydroxypropylcellulose) (HPC)) 109 % of control; (dose: 50.0 mg/kg/injection, schedule: Q04DX003 (ip), vehicle: Klucel (hydroxypropylcellulose) (HPC)) 100 % of control.

As for `CSc1cccc(NC(=O)N2CCN(c3ccccc3)CC2)c1`, the T/C was 93 % of control (dose: 12.5 mg/kg/injection, schedule: Q01DX009 (ip), vehicle: DMSO) and 94 % of control (dose: 25.0 mg/kg/injection, schedule: Q01DX009 (ip), vehicle: DMSO).

Consider `CC12CCOC(=O)/C=C/C=C/C(=O)OC3CC4OC5C6OC6(C)CCC5(COC(=O)C1O2)C3(C)C41CO1` (centres undefined), for which the T/C by setting is: (dose: 2.5 mg/kg/injection, schedule: Q01DX009 (ip), vehicle: saline + alcohol) 154 % of control; (dose: 10.0 mg/kg/injection, schedule: Q01DX009 (ip), vehicle: saline + alcohol) 157 % of control.

With `c1ccc2c(c1)ccc1[nH]c3ccccc3c12`, the T/C is 116 % of control (dose: 100.0 mg/kg/injection, schedule: Q04DX003 (ip), vehicle: saline with Tween-80); 112 % of control under setting [12]; 105 % of control (dose: 400.0 mg/kg/injection, schedule: Q04DX003 (ip), vehicle: saline with Tween-80).

Turning to `Cc1cc2c(c3ncccc13)OCN(Cc1ccc(Cl)cc1)C2`, the T/C (dose: 12.5 mg/kg/injection, schedule: Q01DX009 (ip), vehicle: saline with Tween-80) is 104 % of control; the T/C (dose: 25.0 mg/kg/injection, schedule: Q01DX009 (ip), vehicle: saline with Tween-80) was 100 % of control; the T/C under setting [11] is 91 % of control.

As to `CN(C)CC(C)(C)CO`, the T/C reads like this: under setting [4], 96 % of control; under setting [5], 106 % of control; under setting [6], 101 % of control; under setting [7], 107 % of control.

`COc1ccc2c(c1OC)C(=O)O[C@@H]2[C@H]1c2c(cc3c(c2OC)OCO3)CCN1C`: the T/C by setting is: (dose: 31.3 mg/kg/injection, schedule: Q01DX010 (ip), vehicle: saline) 95 % of control; (dose: 62.5 mg/kg/injection, schedule: Q01DX010 (ip), vehicle: saline) 104 % of control; (dose: 125.0 mg/kg/injection, schedule: Q01DX010 (ip), vehicle: saline) 100 % of control; (dose: 250.0 mg/kg/injection, schedule: Q01DX010 (ip), vehicle: saline) 100 % of control.

Take `O=c1oc2c(CN3CCCC3)c(O)ccc2c2c1CCCC2`: the T/C is, setting by setting: under setting [8], 98 % of control; under setting [9], 109 % of control; under setting [10], 104 % of control; (dose: 8.0 mg/kg/injection, schedule: Q01DX009 (ip), vehicle: Klucel (hydroxypropylcellulose) (HPC)) 109 % of control; (dose: 16.0 mg/kg/injection, schedule: Q01DX009 (ip), vehicle: Klucel (hydroxypropylcellulose) (HPC)) 98 % of control; (dose: 32.0 mg/kg/injection, schedule: Q01DX009 (ip), vehicle: Klucel (hydroxypropylcellulose) (HPC)) 99 % of control.

With `CC1(C)CCCC(Cl)(C(Cl)c2ccccc2)C1=O` (centres undefined), the T/C was 100 % of control (dose: 75.0 mg/kg/injection, schedule: Q01DX001 (ip), vehicle: other); 95 % of control (dose: 150.0 mg/kg/injection, schedule: Q01DX001 (ip), vehicle: other); 95 % of control (dose: 300.0 mg/kg/injection, schedule: Q01DX001 (ip), vehicle: other).
